Measured values taken from patent US20240400998A1, “BLASTOCYST-LIKE CELL AGGREGATE AND METHODS” (IMBA - INSTITUT FÜR MOLEKULARE BIOTECHNOLOGIE GMBH, priority 2021, published 2024).
Entries after “also recorded” stand apart in the source; their conditions may differ.

How the values were obtained:
Assay type in all cases: cell-based, human
naive hPSC aggregates = assay: Induction of blastoids and trophospheres from naive hPSC aggregates in microwell arrays (yield counted by morphology); details: for effect on blastoid formation / yield of blastoids: naive hPSC aggregates in PALY medium complemented with the molecule every day, 0 to 96 hours; for morphology of hPSC aggregates upon stimulation: stimulation of hPSC aggregates with LPA or NAEPA; for formation of blastoids versus trophospheres: 3 μM SC144 in PALLY medium for 4 days (0 to 96 hours)
Protocol: Naive hPSCs or primed hPSCs cultures were treated with Accutase (Biozym, B423201) at 37° C. for 5 min, followed by gentle mechanical dissociation with a pipette. After centrifugation, the cell pellet was resuspended in PXGL medium, supplemented with Y-27632 (10 μM, MedChemExpress, HY-10583). To exclude MEF, the cell suspension was transferred onto gelatin coated plates and incubated at 37° C. for 70 min. After MEF exclusion, the cell number was determined using a Countess™ automated cell counter (Thermo Fisher Scientific) and Trypan Blue staining to assess cell viability. The cells were then resuspended in N2B27 media containing 10 μM Y-27632 (aggregation medium) and 3.0×10^4 cells were seeded onto a microwell array included into a well of a 96-well plate. The cells were allowed to form aggregates inside the microwell for a period ranging from 0 to 24 hours depending on the cell lines and based on their propensity for aggregation. Subsequently, the aggregation medium was replaced with PALLY medium-N2B27 supplemented with PD0325901 (1 μM), A 83-01 (1 μM, MedChemExpress, HY-10432), hLIF (10 ng/ml), 1-Oleoyl lysophosphatidic acid sodium salt (LPA) (500 nM, Tocris, 3854) and Y27632 (10 μM). The PALLY medium was refreshed every 24 hours. After 48 hours, the PALLY medium was replaced with N2B27 medium containing 500 nM LPA and 10 μM Y-27632. At 96 hours, a blastoid is defined based on morphological similarity to B6 staged human blastocyst, as a structure composed of a monolayered cyst with an overall diameter of 150-250 μm comprising one inner cell cluster. We also verified that, beyond the morphology, blastoids form analogs of the three blastocyst cell lineages in the sequential and timely manner of blastocyst development. […] The effect of LPA, NAEPA (Sigma-Aldrich, N0912) and Verteporfin (Selleck Chemicals Llc, S1786) on the yield of blastoid formation was assessed by culturing naive hPSC aggregates in PALY medium complemented with molecules added every day from 0 to 96 hours. The Verteporfin treatment was executed without exposure to the light. The effect of the aPKC inhibitor CRT0103390 (Gift from the laboratory of Kathy Niakan) was assessed by culturing naive hPSC aggregates in PALLY medium complemented with 2 μM CRT0103390 every day from 0 to 96 hours. The formation of trophospheres was induced by culturing naive hPSC aggregates in PALLY medium complemented with 2 μM XMU-MP-1 (Med Chem Express, HY-100526) or 3 μM SC-144 (Axon, 2324) every day from 0 to 96 hours. The BSA concentration was titrated within the range of 0-0.3% for individual cell lines used for the formation of the blastoids and trophospheres.
The phase contrast images were acquired using Thermo Fisher scientific EVOS cell imaging system and inverted wide field microscope Axio VertA1. The number of blastoids or cavitated structures were counted manually for each well. After 96 hours, a blastoid is defined based on the morphological parameters as described in previous sections. The fluorescent images and timelapse images were acquired using Olympus IX83 microscope with Yokogawa W1 spinning disk (Software: CellSense 2.3; camera: Hamamatsu Orca Flash 4.0) or Nikon Eclipse Ti E inverted microscope, equipped with a Yokogawa W1 spinning disc (Software: Visiview 4.5.0.7; camera: Andor Ixon Ultra 888 EMCCD). The confocal images were analyzed and display images were exported using FIJI 1.53k or Bitplane Imaris 9.7.0 softwares. For cell counting, Bitplane Imaris software was used. Cell count parameters were set for size and fluorescence strength of voxels and then overall cell count data was obtained for each image using Imaris's spot function. Note that large cavities in blastoids increase the depth of the imaging field causing poor signal from deeply located cells. Therefore, our counting data in FIG. 8H could be underrepresented values, particularly in the case of trophectoderm cells. The quantification of the percentage of blastoids forming the NR2F2 axis was done manually. […]

[1] = tested on: Open Face Endometrial Layer (OFEL); assay: In vitro implantation assay: attachment of blastoids or trophospheres onto OFELs; details: for potential of endometrial cells to interact with human blastoids: EPC stimulation combined with the Wnt inhibitor
Protocol: (§1) Endometrial organoids were passaged as described in the previous section. The dissociated cells were resuspended in Matrigel supplemented with Y-27632 (10 μM), cell suspension was deposited in 48-well plates and were cultured in endometrial expansion medium for 2 days. The organoids were stimulated first with E2 (10 nM, Sigma-Aldrich, E2758) for 2 days, followed by the mixture of E2 (10 nM), P4 (1 μM, Sigma-Aldrich, P8783), and CAMP (250 μM, Biolog, B 007) with or without XAV939 (10 µM) (EPC or EPCX respectively) for 4 days. For OFELs culture, organoids were recovered from the matrigel droplets with ice-cold DMEM/F12 and mechanical pipetting. The organoids were dissociated using TrypLE and mechanically triturated to generate single cells and seeded at the density of 3 to 3.5×10^4 cells per well into a 96-well glass bottom plate (Cellvis, P96-1.5H-N) and cultured for 2-3 days with stimulation. For contraceptive treatment, levonorgestrel (LNG) (10 μM, Sigma-Aldrich, PHR1850) was added every day to the medium two days after hormonal stimulation and continued until the end of experiment.
Confluent OFELs were prepared for the implantation assay at least 2 hours prior to the deposition of blastoids, trophospheres, naive hPSCs or hTSCs aggregates by washing the OFEL two times with DMEM/F12 and adding IVC medium (Xiang, L. et al. Nature 577, 537-542 (2020)). Structures were then transferred onto the OFELs using a mouth pipette under an inverted microscope. After 24-48 hours, the medium was removed, the well was washed with PBS, fixed using 4% formaldehyde for 30 minutes at room temperature and subsequently processed for immunofluorescence staining. The percentage of attached structures was reported as the percentage of total transferred structures.

[2] = tested on: endometrial cells (open-faced endometrial layer, OFEL); assay: qRT-PCR of window-of-implantation markers in endometrial cells (OFELs); details: for expression of the gene PAEP (marker of the WOI): endometrial cells, Wnt inhibition
Protocol: as §1
RNA was extracted using the RNeasy mini kit (Qiagen, 74106) and cDNA synthesis was performed using the Superscript III (Invitrogen, 18080093) enzyme. qPCR reactions were performed using GoTaq® qPCR Master Mix (Promega, A6001) on CFX384 Touch Real-Time PCR Detection System (Bio-rad). Quantification was performed using Microsoft Office Excel by applying the comparative Cycle threshold (Ct) method. Relative expression levels were normalized to GAPDH.

1-Oleoyl lysophosphatidic acid sodium salt [LPA]
effect on blastoid formation / yield of blastoids (naive hPSC aggregates; sodium salt): increases; also recorded: significantly improved efficiency; also recorded: enhanced blastoid formation | morphology of hPSC aggregates upon stimulation (naive hPSC aggregates): leads to the transition from a solid aggregate of cells to a cystic structure including a single fluid-filled cavity

Cc1ccc2nc(NC(=O)CSc3nc4c(c(=O)n3-c3ccccc3)SCC4)sc2c1 [IWP-2]
potential of endometrial cells to interact with human blastoids [1]: increases the potential of endometrial cells to interact with human blastoids

Cn1ncnc2c(=O)n(C)c(=O)nc1-2 [PKF118-310]
expression of the gene PAEP (marker of the WOI) [2]: increase the expression of the gene PAEP

Cc1ccc(/C=N/NC(=O)c2ccccc2Oc2ccccc2)o1 [PNU-74654]
potential of endometrial cells to interact with human blastoids [1]: increases the potential of endometrial cells to interact with human blastoids

NC(=O)c1ccc(-c2nc(-c3ccc4c(c3)OCO4)c(-c3ccccn3)[nH]2)cc1 [SB431542]
blastoid formation with alternative TGF-b inhibitor (naive hPSC aggregates; 1 μM SB431542 for 4 days in combination with PLLY): also work

O=C(NNc1nc2cc(F)ccc2n2cccc12)c1cnccn1 [SC144]
attachment of trophospheres to stimulated endometrial cells (OFELs) ([1]; trophospheres formed using 3 μM SC144): fail to attach and invade stimulated endometrial cells; also recorded: largely fail to attach and to invade the endometrial layer; also recorded: failed to attach to OFELs | formation of blastoids versus trophospheres (naive hPSC aggregates): a decrease in the formation of blastoids and an increase in the formation of trophospheres; also recorded: induces the formation of trophospheres with limited or no epiblast-like cells and hypoblast-like cells; also recorded: yielded trophospheres | formation of blastoids versus trophospheres (naive hPSC aggregates; listed as SC-144): induced the formation of mono-layer cavitated aggregate that does not form an inner cluster of Epi-/Hypo-like cells | maturation of lineage specification of outer trophectoderm cells (naive hPSC aggregates; SC-144 treatment): compromised

Oc1nc(-c2ccc(C(F)(F)F)cc2)nc2c1CSCC2 [XAV939]
potential of endometrial cells to interact with human blastoids [1]: increases the potential of endometrial cells to interact with human blastoids | expression of PAEP, SPP1, LIF and DPP4 (RTqPCR) ([2]; endometrial cells cultured with XAV939): increases the expression of PAEP, SPP1, LIF and DPP4 | expression of the gene PAEP (marker of the WOI) [2]: increase the expression of the gene PAEP

CN1C(=O)c2sccc2N(C)c2nc(Nc3ccc(S(N)(=O)=O)cc3)ncc21 [XMU-MP-1]
attachment of trophospheres to stimulated endometrial cells (OFELs) ([1]; trophospheres formed using 2 μM XMU-MP-1): fail to attach and invade stimulated endometrial cells; also recorded: largely fail to attach and to invade the endometrial layer; also recorded: failed to attach to OFELs | formation of trophospheres (naive hPSC aggregates; 2 μM XMU-MP-1 in PALLY medium for 4 days (0 to 96 hours)): results in the formation of trophospheres; also recorded: induces the formation of trophospheres with limited or no epiblast-like cells and hypoblast-like cells; also recorded: yielded trophospheres

LIF: leukemia inhibitory factor, STAT3 agonist
blastoid formation efficiency versus LIF concentration (naive hPSC aggregates; dose dependent effect of LIF): blastoid formation efficiency increased with LIF concentration

N-[2-(phosphonooxy)ethyl]-9Z-octadecenamide [NAEPA]
effect on blastoid formation / yield of blastoids (naive hPSC aggregates): increases; also recorded: enhanced blastoid formation | morphology of hPSC aggregates upon stimulation (naive hPSC aggregates): leads to the transition from a solid aggregate of cells to a cystic structure including a single fluid-filled cavity

Verteporfin
formation of a cavity (naive hPSC aggregates; aggregate of hPSCs treated with Verteporfin, 1 μM): totally prevents the formation of a cavity | effect on blastoid formation / yield of blastoids (naive hPSC aggregates): decreases; also recorded: prevented blastoid formation
